Results on four compounds are retold here after the NIST ThermoML archive (doi:10.1016/j.jct.2009.03.001).

Each structure is given as a SMILES string. Numbers after ± are expanded uncertainties.

This series in a line: molar enthalpy of vaporization or sublimation. Particulars: 298.15 K; Crystal; drop microcalorimetry.
Consider `O=[N+]([O-])c1ccc(Cl)cc1Cl` [1,3-dichloro-4-nitrobenzene], for which the molar enthalpy came to 21 ± 0.813 kcal/mol. In the case of `O=[N+]([O-])c1cc(Cl)cc(Cl)c1` [1,3-dichloro-5-nitrobenzene] it was 19.9 ± 0.717 kcal/mol; in that of `O=[N+]([O-])c1cc(Cl)ccc1Cl` [1,4-dichloro-2-nitrobenzene], 20.9 ± 1.2 kcal/mol. In the case of `O=[N+]([O-])c1ccc(Cl)c(Cl)c1` [3,4-dichloro-1-nitrobenzene] it was 20.5 ± 1.2 kcal/mol.
